Test results from patent publication EP0524173B1, “SOLUBILIZATION AND PURIFICATION OF THE GASTRIN RELEASING PEPTIDE RECEPTOR” (BERLEX LABORATORIES, INC., priority 1989, dated 1991).
Where a SMILES comes first, the peptide text is derived from it. [ ]: non-standard residue; d: D form. Nle = CCCC[C@H](N)C(=O)O

Tests used:
GRP receptor [1] = target: T1, GRP receptor (Mus musculus, UniProt P21729); assay: ^125I-GRP ligand binding assay, detergent solubilized Swiss 3T3 fibroblast membranes; conditions: for Solubilized Membranes Counts/minute Bound Measured as % of Total Added: 10 µM nucleotide added to control containing MgCl2, 0.075% CHAPS, 0.015% CHS, control 28
T1 construct: endogenous in cells; host or cells: mouse Swiss 3T3 fibroblasts (membranes; intact or solubilized with CHAPS/CHS)
T1 sequence (P21729 whole entry): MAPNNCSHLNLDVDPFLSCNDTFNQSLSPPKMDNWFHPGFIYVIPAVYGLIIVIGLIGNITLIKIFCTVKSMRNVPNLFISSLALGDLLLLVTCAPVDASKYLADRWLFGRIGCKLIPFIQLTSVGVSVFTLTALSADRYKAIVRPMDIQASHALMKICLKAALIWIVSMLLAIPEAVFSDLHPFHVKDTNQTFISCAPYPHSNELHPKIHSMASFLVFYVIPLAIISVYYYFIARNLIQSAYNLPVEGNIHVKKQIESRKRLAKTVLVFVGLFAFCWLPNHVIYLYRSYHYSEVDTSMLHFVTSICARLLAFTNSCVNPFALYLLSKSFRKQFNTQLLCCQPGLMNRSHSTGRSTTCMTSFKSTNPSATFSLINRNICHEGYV
Procedure: Swiss 3T3 fibroblast membranes, prepared in Example 1, were suspended at 15 mg protein/ml in 50 mM HEPES, pH 7.5, 1.0 mM EGTA, 100 mM NaCl, 0.25 M sucrose, 50 µg/ml leupeptin, 5 µg/ml pepstatin, 10 µg/ml aprotinin, 30 µg/ml bacitracin, and 0.5 mM phenylmethylsulfonyl fluoride. A mixture of 3-[(3cholamidopropyl) dimethylammonio]-1- propane sulfonate (CHAPS) and cholesteryl hemisuccinate (CHS) in a ratio of 10:1 was added slowly to yield a final concentration of 0.75% CHAPS. The extract was incubated at 21°C for 30 minutes, cooled to 4°C and the insoluble material was removed by centrifugation at 100,000 x gravity for 60 minutes.
For assays of detergent solubilized membrane extracts, the final CHAPS detergent concentration was adjusted to between 0.050% and 0.20%. The concentration of CHS was maintained at 1/5 to 1/10 the concentration of CHAPS. Samples were also prepared omitting the BSA. After incubation at 15°C for 30 minutes, samples were cooled to 0°C. Bound ligand (^125I-GRP:GRP receptor complex) was recovered by rapid filtration through polyethyleneimine treated Whatman GF/B filters, followed by four washes with 4 mls of ice cold Tris buffer (50 mM Tris/Cl, pH 7.5). The filters were counted in an Isodata 500 gamma counter.
Scatchard analysis of ^125I-GRP binding to intact and solubilized Swiss 3T3 membranes was done. One particular experiment is discussed below, where the binding parameters of the solubilized and the membrane bound form of the receptor are determined under similar conditions.

GRP receptor [2] = target: T1, GRP receptor; assay: ^125I-GRP ligand binding assay, intact Swiss 3T3 fibroblast membranes; conditions: 5 µM nucleotide added to control containing MgCl2; control 28.9
Procedure: For assays of detergent solubilized membrane extracts, the final CHAPS detergent concentration was adjusted to between 0.050% and 0.20%. The concentration of CHS was maintained at 1/5 to 1/10 the concentration of CHAPS. Samples were also prepared omitting the BSA. After incubation at 15°C for 30 minutes, samples were cooled to 0°C. […] The filters were counted in an Isodata 500 gamma counter.
One particular experiment is discussed below, where the binding parameters of the solubilized and the membrane bound form of the receptor are determined under similar conditions.

Row | Solubilized Membranes Counts/minute Bound Measured as % of Total Added (GRP receptor [1]) | IC50 (GRP receptor [1]; unlabeled competitor peptide) | Compound | time at which binding to the soluble receptor leveled off (GRP receptor [1]; 15°C, remained constant for up to 2 hours) | Intact Membranes Counts/minute Bound Measured as % of Total Added (GRP receptor [2])
1 | 26.5% | – | Nc1nc2c(ncn2[C@@H]2O[C@H](COP(=O)(O)OP(=O)(O)NP(=O)(O)O)[C@@H](O)[C@H]2O)c(=O)[nH]1 [GMPPNP] | – | 10.5%
2 | 27.5% | – | Nc1nc2c(ncn2[C@@H]2O[C@H](COP(=O)(O)OP(=O)(O)OP(=O)(O)O)[C@@H](O)[C@H]2O)c(=O)[nH]1 [GTP] | – | 10.7%
3 | – | 0.3 nM | CCCC[C@H](NC(=O)[C@H](CC(C)C)NC(=O)[C@H](Cc1c[nH]cn1)NC(=O)CNC(=O)[C@@H](NC(=O)[C@H](C)NC(=O)[C@H](Cc1c[nH]c2ccccc12)NC(=O)[C@H](Cc1c[nH]cn1)NC(=O)[C@H](CC(N)=O)NC(=O)CNC(=O)[C@H](CCCNC(=N)N)NC(=O)[C@@H]1CCCN1C(=O)[C@H](Cc1ccc(O)cc1)NC(=O)[C@H](CCCC)NC(=O)[C@@H](N)CCCCN)C(C)C)C(N)=O [[Nle^14,27]GRP13-27] (H-K[Nle]YPRGNHWAVGHL[Nle]-NH2) | – | –

Continued, compound first:

Row | Compound | Solubilized Membranes Counts/minute Bound Measured as % of Total Added (GRP receptor [1]) | IC50 (GRP receptor [1]; unlabeled competitor peptide) | time at which binding to the soluble receptor leveled off (GRP receptor [1]; 15°C, remained constant for up to 2 hours) | Intact Membranes Counts/minute Bound Measured as % of Total Added (GRP receptor [2])
4 | 3-(125Iodotyrosyl15) gastrin releasing peptide [^125I-GRP] | – | – | ≤ 20 min | –
5 | Nc1ncnc2c1ncn2[C@@H]1O[C@H](COP(=O)(O)OP(=O)(O)NP(=O)(O)O)[C@@H](O)[C@H]1O [AMPPNP] | 27.8% | – | – | 33.4%
6 | Nc1ncnc2c1ncn2[C@@H]1O[C@H](COP(=O)(O)OP(=O)(O)OP(=O)(O)O)[C@@H](O)[C@H]1O [ATP] | – | – | – | 29.7%
